# According to patent US20240124470A1, “FIVE-MEMBERED RING DERIVATIVE AND MEDICAL USE THEREOF” (SICHUAN HAISCO PHARMACEUTICAL CO., LTD., priority 2020, published 2024):
# Experiments:
# [1] = Evaluation of pharmacokinetics in cynomolgus monkeys; format: in vivo; settings: intravenous 2 mg/kg and intragastric 10 mg/kg
# Procedure: Evaluation of Pharmacokinetics in Cynomolgus Monkeys
# Male cynomolgus monkeys (raised in Suzhou LEOLAB Bio Tech. Co., Ltd.), weighing 3-5 kg, were fasted overnight (14-18 h), […]. On the day of the experiment, 6 male cynomolgus monkeys were divided into 2 groups, with 3 […] in each group. The test compound was administered intravenously and intragastrically at doses of 2 mg/kg and 10 mg/kg respectively. Before administration and 5 min, 15 min, 30 min, 1 h, 2 h, 4 h, 6 h, 8 h 10 h, 12 h and 24 h after administration, 1 ml of blood was collected via the limb vein, placed in an EDTAK2 centrifuge tube, and centrifuged at 6000 rpm at 4° C. for 5 min, and then the plasma was collected. The plasma sample was added to an acetonitrile solution containing an internal standard (dexamethasone, 500 ng/mL), vortexed and centrifuged at 10,000 rpm for 10 min, and the supernatant was taken for LC-MS/MS analysis. Pharmacokinetic parameters were calculated using the non-compartmental model in WinNonlin Version 8.0 (Pharsight, Mountain View, CA) pharmacokinetic software. Conclusion: The compounds of the present invention have good metabolic properties.
# [2] = Stability test in human liver microsomes; format: in vitro ADME
# Procedure: (§1) 7. Stability Test in Human Liver Microsomes At 37° C., 1 μM of the test compound was incubated with human liver microsomes (0.5 mg/mL) supplemented with NADPH regeneration system for 5, 10, 20, 30 and 60 minutes, and then LC-MS/MS method was used to detect the concentration of the test compound in the generated sample. The half-life (T1/2) and inherent clearance rate (CLint(mic)) of the compound in human liver microsome solution were obtained by calculating at the corresponding time points and the remaining percentage of the compound.
# [3] = molecular target: T1, CYP3A4-M (Homo sapiens, UniProt P08684); experiment: Cytochrome P450 isoenzyme inhibition test, human liver microsomes: CYP3A4-M; format: in vitro ADME; settings: human liver microsomes 0.1 mg/mL; read-out: IC50, inhibitory activity on CYP3A4-M
# T1 construct: pre-incubated with the human liver microsome solutions containing 5 enzyme mixed substrates; from tissue; host or cells: human liver microsomes
# Procedure: (§2) 9. Cytochrome P450 Isoenzyme Inhibition Test Experimental objective: The inhibitory effect of the test compound on the activity of human liver microsomal cytochrome P450 isoenzyme (CYP1A2, CYP2C19, CYP2D6 and CYP3A4) was determined. Experimental operation: The test compound at an incubation concentration of 0, 0.03, 0.1, 0.3, 1, 3, 10, 30 and 100 μM was pre-incubated with the human liver microsome solutions containing 5 enzyme mixed substrates (liver microsome concentration: 0.1 mg/mL) in a water bath at 37° C. for 10 min, respectively, and then a coenzyme factor (NADPH) was added to start the reaction. After incubation in a water bath at 37° C. for 10 min, the reaction was terminated by adding glacial acetonitrile solution containing an internal standard, shaken for 1 min, centrifuged at 4° C. and 10,000 rpm for 10 min, and the supernatant was taken for LC/MS/MS analysis. The amount of metabolites produced by each CYP enzyme substrate was detected. The activity of each CYP isoenzyme was reflected by the production rate of each metabolite. […]
# [4] = Stability test in mouse liver microsomes; format: in vitro ADME
# Procedure: as §1, with “3.” for “7.”, “Mouse” for “Human”, “mouse” for “human”
# [5] = molecular target: T2, CYP2C19 (Homo sapiens, UniProt P33261); experiment: Cytochrome P450 isoenzyme inhibition test, human liver microsomes: CYP2C19; format: in vitro ADME; settings: human liver microsomes 0.1 mg/mL; read-out: IC50, inhibitory activity on CYP2C19
# T2 construct: pre-incubated with the human liver microsome solutions containing 5 enzyme mixed substrates; from tissue; host or cells: human liver microsomes
# Procedure: as §2
# [6] = molecular target: T3, CYP1A2 (Homo sapiens, UniProt P05177); experiment: Cytochrome P450 isoenzyme inhibition test, human liver microsomes: CYP1A2; format: in vitro ADME; settings: human liver microsomes 0.1 mg/mL; read-out: IC50, inhibitory activity on CYP1A2
# T3 construct: pre-incubated with the human liver microsome solutions containing 5 enzyme mixed substrates; from tissue; host or cells: human liver microsomes
# T3 sequence (P05177 1-516): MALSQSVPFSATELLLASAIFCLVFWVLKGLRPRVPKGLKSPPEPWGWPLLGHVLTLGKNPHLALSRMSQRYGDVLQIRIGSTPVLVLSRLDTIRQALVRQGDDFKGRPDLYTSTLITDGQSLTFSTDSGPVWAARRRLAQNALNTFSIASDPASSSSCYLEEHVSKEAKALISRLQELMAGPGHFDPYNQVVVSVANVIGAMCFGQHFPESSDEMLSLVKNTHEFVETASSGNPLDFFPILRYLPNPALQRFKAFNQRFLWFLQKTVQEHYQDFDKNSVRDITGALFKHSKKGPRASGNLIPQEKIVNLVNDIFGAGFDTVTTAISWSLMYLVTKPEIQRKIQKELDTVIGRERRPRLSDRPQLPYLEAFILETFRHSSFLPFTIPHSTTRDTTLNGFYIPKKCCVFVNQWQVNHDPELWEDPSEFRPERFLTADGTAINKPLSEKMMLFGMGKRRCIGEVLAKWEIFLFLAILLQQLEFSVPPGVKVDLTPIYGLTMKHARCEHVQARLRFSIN
# Procedure: as §2
# T2 sequence (P33261 whole entry): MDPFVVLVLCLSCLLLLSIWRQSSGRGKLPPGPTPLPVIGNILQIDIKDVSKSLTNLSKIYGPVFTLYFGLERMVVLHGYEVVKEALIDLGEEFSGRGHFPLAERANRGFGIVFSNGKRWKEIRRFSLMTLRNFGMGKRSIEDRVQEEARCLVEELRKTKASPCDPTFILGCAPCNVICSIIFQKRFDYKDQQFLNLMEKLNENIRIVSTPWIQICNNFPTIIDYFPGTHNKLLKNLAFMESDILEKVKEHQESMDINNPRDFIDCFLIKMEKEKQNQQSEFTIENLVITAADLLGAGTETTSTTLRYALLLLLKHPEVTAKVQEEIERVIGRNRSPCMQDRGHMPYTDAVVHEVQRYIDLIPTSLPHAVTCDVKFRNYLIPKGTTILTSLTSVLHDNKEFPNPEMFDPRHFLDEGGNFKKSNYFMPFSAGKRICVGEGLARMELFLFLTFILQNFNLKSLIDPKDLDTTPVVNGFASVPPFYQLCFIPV
# T1 sequence (P08684 whole entry): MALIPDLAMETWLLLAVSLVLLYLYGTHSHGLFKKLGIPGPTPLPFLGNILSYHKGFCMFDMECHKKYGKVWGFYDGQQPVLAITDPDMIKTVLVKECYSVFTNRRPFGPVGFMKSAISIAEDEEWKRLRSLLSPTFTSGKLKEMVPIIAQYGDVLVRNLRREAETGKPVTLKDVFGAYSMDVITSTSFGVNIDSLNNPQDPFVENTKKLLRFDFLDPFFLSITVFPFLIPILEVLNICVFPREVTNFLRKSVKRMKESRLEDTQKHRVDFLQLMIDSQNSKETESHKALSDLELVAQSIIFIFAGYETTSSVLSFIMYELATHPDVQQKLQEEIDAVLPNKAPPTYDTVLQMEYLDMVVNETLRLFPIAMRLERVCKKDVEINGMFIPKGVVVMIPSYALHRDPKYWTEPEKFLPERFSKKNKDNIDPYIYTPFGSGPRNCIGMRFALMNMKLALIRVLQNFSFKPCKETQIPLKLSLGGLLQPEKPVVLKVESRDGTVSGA
smiles,measurement,setting,value
"N#Cc1ccc(COc2cccc(-c3ccc(Cc4nc5sc(C(=O)O)cc5n4C[C@@H]4CCO4)c(F)c3)n2)c(F)c1 [Compound 6, (S)-2-(4-(6-((4-cyano-2-fluorobenzyl)oxy)pyridin-2-yl)-2-fluorobenzyl)-1-(oxetan-2-ylmethyl)-1H-thieno[2,3-d]imidazole-5-carboxylic acid]",clearance rate in monkeys,[1],low clearance rate
same,half-life in monkeys,[1],long half-life
same,half-life at 1 μM,"[2]; human liver microsomes 0.5 mg/mL, 1 μM compound, NADPH, 37° C.",9.23 h
same,microsomal CLint at 1 μM,"[2]; human liver microsomes 0.5 mg/mL, 1 μM compound, NADPH, 37° C., read-out: CLint(mic)",2.5 µL/min/mg
same,T1/2 ratio of compound 6 to compound DZ-6,[2]; human liver microsomes test (section 7),greater than 3
same,IC50,[3],> 50 µM
same,T1/2 ratio of compound 6 to compound DZ-6,[4]; mouse liver microsomes,greater than 2
same,half-life at 1 μM,"[4]; mouse liver microsomes 0.5 mg/mL, 1 μM compound, NADPH, 37° C.",4.93 h
same,microsomal CLint at 1 μM,"[4]; mouse liver microsomes 0.5 mg/mL, 1 μM compound, NADPH, 37° C., read-out: CLint(mic)",4.69 µL/min/mg
same,IC50,[5],> 50 µM
same,IC50,[6],> 50 µM
